The record followed here is ChEMBL document CHEMBL3621088, “Synthesis of novel acridine bis-sulfonamides with effective inhibitory activity against the carbonic anhydrase isoforms I, II, IX and XII” (Bioorg Med Chem, 2015).

The structures appear in SMILES notation.

The assay addresses Carbonic anhydrase 9 (Homo sapiens, UniProt Q16790).
Description: Inhibition of recombinant human carbonic anhydrase 9 catalytic domain expressed in Escherichia coli incubated for 15 mins prior to testing by stopped flow CO2 hydrase assay
`CC1(C)CC(=O)C2=C(C1)N(c1ccc(S(N)(=O)=O)cc1)C1=C(C(=O)CC(C)(C)C1)C2c1ccc(N)cc1` came in with a Ki of 1000 nM.

In the case of `CC1(C)CC(=O)C2=C(C1)N(c1ccc(S(N)(=O)=O)cc1)C1=C(C(=O)CC(C)(C)C1)C2c1cccc(N)c1`, the affinity corresponds to a Ki of 920 nM.

In turn, `CC1(C)CC(=O)C2=C(C1)N(c1ccc(S(N)(=O)=O)cc1)C1=C(C(=O)CC(C)(C)C1)C2c1ccc(NS(=O)(=O)c2ccccc2)cc1` showed a Ki of 580 nM.

Compound `Cc1ccc(S(=O)(=O)Nc2ccc(C3C4=C(CC(C)(C)CC4=O)N(c4ccc(S(N)(=O)=O)cc4)C4=C3C(=O)CC(C)(C)C4)cc2)cc1` registered a Ki of 100 nM.

Regarding `COc1ccc(S(=O)(=O)Nc2ccc(C3C4=C(CC(C)(C)CC4=O)N(c4ccc(S(N)(=O)=O)cc4)C4=C3C(=O)CC(C)(C)C4)cc2)cc1`, the Ki worked out at 440 nM.

`CC1(C)CC(=O)C2=C(C1)N(c1ccc(S(N)(=O)=O)cc1)C1=C(C(=O)CC(C)(C)C1)C2c1ccc(NS(=O)(=O)c2ccc(Br)cc2)cc1` yielded a Ki of 1120 nM.

Take `CC1(C)CC(=O)C2=C(C1)N(c1ccc(S(N)(=O)=O)cc1)C1=C(C(=O)CC(C)(C)C1)C2c1ccc(NS(=O)(=O)c2ccc3ccccc3c2)cc1`: the Ki was 280 nM.

`CC1(C)CC(=O)C2=C(C1)N(c1ccc(S(N)(=O)=O)cc1)C1=C(C(=O)CC(C)(C)C1)C2c1cccc(NS(=O)(=O)c2ccccc2)c1`: the Ki came to 110 nM. Compared with the last compound, the Ki is about 2.5-fold lower.

Turning to `Cc1ccc(S(=O)(=O)Nc2cccc(C3C4=C(CC(C)(C)CC4=O)N(c4ccc(S(N)(=O)=O)cc4)C4=C3C(=O)CC(C)(C)C4)c2)cc1`, the affinity, expressed as Ki, was 100 nM.

As for `COc1ccc(S(=O)(=O)Nc2cccc(C3C4=C(CC(C)(C)CC4=O)N(c4ccc(S(N)(=O)=O)cc4)C4=C3C(=O)CC(C)(C)C4)c2)cc1`, the Ki was 800 nM.

As for `CC1(C)CC(=O)C2=C(C1)N(c1ccc(S(N)(=O)=O)cc1)C1=C(C(=O)CC(C)(C)C1)C2c1cccc(NS(=O)(=O)c2ccc(Br)cc2)c1`, the affinity, expressed as Ki, was 250 nM.

The compound `CC1(C)CC(=O)C2=C(C1)N(c1ccc(S(N)(=O)=O)cc1)C1=C(C(=O)CC(C)(C)C1)C2c1cccc(NS(=O)(=O)c2ccc3ccccc3c2)c1` gave a Ki of 810 nM.

Usually Ki stands for the equilibrium dissociation constant of an inhibitor or competing ligand from its target. Lower therefore signals a stronger hold on the target.
